Results: the supplement of paper PMC9013687
± gives the standard deviation of the averaged measurements.

Key:
Danio rerio embryo [1] = test system: Danio rerio embryo
Experimental: (§1)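 Zebrafish embryos (UFZ-OBI strain) were exposed from 2 hpf for 48 h (2 dpf) or 96 h (4 dpf) at 28 °C; spontaneous tail coiling was scored at 25 hpf. Morphological features from automated image analysis (FishInspector), heart rate and locomotor response were fitted with drc models. Quantal endpoints were dichotomised at 2.5 SD from controls and fitted with a log-logistic model; heart rate, pigmentation and STC were normalised to the replicate control mean. Betamethasone was tested as betamethasone dipropionate, diflorasone as diflorasone diacetate.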

Danio rerio embryo [2] = details: exposure time: 4 dpf
Experimental: as §1

Danio rerio embryo [3] = experiment: EC50 Curvature_Increase
Experimental: as §1

Danio rerio embryo [4] = experiment: EC50 Body length_Decrease
Experimental: as §1

Danio rerio embryo [5] = experiment: EC50 Bladder size_Decrease; details: exposure time: 4 dpf
Experimental: as §1

Danio rerio embryo [6] = experiment: EC50 Pericard size_Increase; details: exposure time: 4 dpf
Experimental: as §1

Danio rerio embryo [7] = experiment: EC50 Yolk sac size_Increase; details: exposure time: 4 dpf
Experimental: as §1

Danio rerio embryo [8] = experiment: EC50 Eye-jaw distance_Decrease; details: exposure time: 4 dpf
Experimental: as §1

Danio rerio embryo [9] = experiment: EC50 Otolith-eye distance_Decrease; details: exposure time: 4 dpf
Experimental: as §1

Danio rerio embryo [10] = experiment: EC10 LMR dark; higher = less potent; details: exposure time: 4 dpf
Experimental: as §1

Danio rerio embryo [11] = experiment: EC20 LMR dark; higher = less potent; details: exposure time: 4 dpf
Experimental: as §1

Danio rerio embryo [12] = experiment: EC20 Any effect; higher = less potent
Experimental: as §1

Danio rerio embryo [13] = experiment: EC10 Any effect; higher = less potent
Experimental: as §1

Danio rerio embryo [14] = experiment: EC20 Eye size_Decrease; higher = less potent
Experimental: as §1

Danio rerio embryo [15] = experiment: EC10 Curvature_Increase; higher = less potent
Experimental: as §1

Danio rerio embryo [16] = experiment: EC20 Curvature_Increase; higher = less potent
Experimental: as §1

Danio rerio embryo [17] = experiment: EC10 Head size_Decrease; higher = less potent; details: exposure time: 2 dpf
Experimental: as §1

Danio rerio embryo [18] = experiment: EC20 Body length_Decrease; higher = less potent
Experimental: as §1

Danio rerio embryo [19] = experiment: EC10 Body length_Decrease; higher = less potent
Experimental: as §1

Danio rerio embryo [20] = experiment: EC10 Bladder size_Decrease; higher = less potent; details: exposure time: 4 dpf
Experimental: as §1

Danio rerio embryo [21] = experiment: EC20 Bladder size_Decrease; higher = less potent; details: exposure time: 4 dpf
Experimental: as §1

Danio rerio embryo [22] = experiment: EC20 Yolk sac size_Increase; higher = less potent; details: exposure time: 4 dpf
Experimental: as §1

Danio rerio embryo [23] = experiment: EC20 Pericard size_Increase; higher = less potent; details: exposure time: 4 dpf
Experimental: as §1

Danio rerio embryo [24] = experiment: EC10 Yolk sac size_Increase; higher = less potent; details: exposure time: 4 dpf
Experimental: as §1

Danio rerio embryo [25] = experiment: EC10 Pericard size_Increase; higher = less potent; details: exposure time: 4 dpf
Experimental: as §1

Danio rerio embryo [26] = experiment: EC20 Eye-jaw distance_Decrease; higher = less potent; details: exposure time: 4 dpf
Experimental: as §1

Danio rerio embryo [27] = experiment: EC10 Eye-jaw distance_Decrease; higher = less potent; details: exposure time: 4 dpf
Experimental: as §1

Danio rerio embryo [28] = experiment: EC20 Otolith-eye distance_Decrease; higher = less potent; details: exposure time: 4 dpf
Experimental: as §1

Danio rerio embryo [29] = experiment: EC10 Otolith-eye distance_Decrease; higher = less potent; details: exposure time: 4 dpf
Experimental: as §1

Danio rerio embryo [30] = experiment: spontaneous tail coiling frequency (coils/min/embryo); higher = more spontaneous movement; details: 25 hpf
Experimental: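 Spontaneous tail coilings of zebrafish embryos exposed from 2 hpf were recorded at 24-25 hpf in 1-min videos and detected by a KNIME workflow from grey-value variance. Betamethasone was tested as the dipropionate, diflorasone as the diacetate.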

CCO/N=C(\CC)C1=C(O)CC(c2c(C)cc(C)cc2C)CC1=O (stereo not drawn) [Tralkoxydim]
EC50 Any effect (Danio rerio embryo [1]; exposure time: 2 dpf): 66 µM | EC50 Otolith (Danio rerio embryo [1]; exposure time: 2 dpf): 241 µM | EC50 Any effect (Danio rerio embryo [1]; exposure time: 4 dpf): 68.9 µM | EC50 STC decrease (Danio rerio embryo [1]; exposure time: 25 h): 171 µM | EC50 LMR dark (Danio rerio embryo [2]): 85.8 µM | EC50 Curvature Increase (Danio rerio embryo [3]; exposure time: 2 dpf): 98.7 µM | EC50 Curvature Increase (Danio rerio embryo [3]; exposure time: 4 dpf): 101 µM | EC50 Body length Decrease (Danio rerio embryo [4]; exposure time: 2 dpf): 66.2 µM | EC50 Body length Decrease (Danio rerio embryo [4]; exposure time: 4 dpf): 103 µM | EC50 Bladder size Decrease (Danio rerio embryo [5]): 61.3 µM | EC50 Pericard size Increase (Danio rerio embryo [6]): 106 µM | EC50 Yolk sac size Increase (Danio rerio embryo [7]): 65.3 µM | EC50 Eye-jaw distance Decrease (Danio rerio embryo [8]): 97.9 µM | EC50 Otolith-eye distance Decrease (Danio rerio embryo [9]): 116 µM | EC10 LMR dark (Danio rerio embryo [10]): 0.149 µM | EC20 LMR dark (Danio rerio embryo [11]): 1.56 µM | EC20 Any effect (Danio rerio embryo [12]; exposure time: 2 dpf): 47.2 µM | EC20 Any effect (Danio rerio embryo [12]; exposure time: 4 dpf): 52.7 µM | EC10 Any effect (Danio rerio embryo [13]; exposure time: 2 dpf): 38.8 µM | EC10 Any effect (Danio rerio embryo [13]; exposure time: 4 dpf): 45.1 µM | EC20 Eye size Decrease (Danio rerio embryo [14]; exposure time: 2 dpf): 122 µM | EC20 Eye size Decrease (Danio rerio embryo [14]; exposure time: 4 dpf): 94.7 µM | EC10 Curvature Increase (Danio rerio embryo [15]; exposure time: 2 dpf): 77.4 µM | EC10 Curvature Increase (Danio rerio embryo [15]; exposure time: 4 dpf): 85.2 µM | EC20 Curvature Increase (Danio rerio embryo [16]; exposure time: 2 dpf): 84.7 µM | EC20 Curvature Increase (Danio rerio embryo [16]; exposure time: 4 dpf): 90.7 µM | EC10 Head size Decrease (Danio rerio embryo [17]): 74.7 µM | EC20 Body length Decrease (Danio rerio embryo [18]; exposure time: 2 dpf): 45.5 µM | EC20 Body length Decrease (Danio rerio embryo [18]; exposure time: 4 dpf): 91.9 µM | EC10 Body length Decrease (Danio rerio embryo [19]; exposure time: 2 dpf): 36.6 µM | EC10 Body length Decrease (Danio rerio embryo [19]; exposure time: 4 dpf): 85.8 µM | EC10 Bladder size Decrease (Danio rerio embryo [20]): 47.1 µM | EC20 Bladder size Decrease (Danio rerio embryo [21]): 51.9 µM | EC20 Yolk sac size Increase (Danio rerio embryo [22]): 45.9 µM | EC20 Pericard size Increase (Danio rerio embryo [23]): 104 µM | EC10 Yolk sac size Increase (Danio rerio embryo [24]): 37.4 µM | EC10 Pericard size Increase (Danio rerio embryo [25]): 103 µM | EC20 Eye-jaw distance Decrease (Danio rerio embryo [26]): 89 µM | EC10 Eye-jaw distance Decrease (Danio rerio embryo [27]): 84.3 µM | EC20 Otolith-eye distance Decrease (Danio rerio embryo [28]): 89.6 µM | EC10 Otolith-eye distance Decrease (Danio rerio embryo [29]): 77.1 µM | spontaneous tail coiling frequency (Danio rerio embryo [30]; 30.4 µM): 2.43 ± 0.84 | spontaneous tail coiling frequency (Danio rerio embryo [30]; 60.7 µM): 2.33 | spontaneous tail coiling frequency (Danio rerio embryo [30]; 91.1 µM): 4.43 ± 1.7 | spontaneous tail coiling frequency (Danio rerio embryo [30]; 121.4 µM): 3.17 ± 1.6 | spontaneous tail coiling frequency (Danio rerio embryo [30]; 151.8 µM): 1.92 ± 2.8 | spontaneous tail coiling frequency (Danio rerio embryo [30]; 197.3 µM): 0.957 ± 1.6 | spontaneous tail coiling frequency (Danio rerio embryo [30]; 258 µM): 0
